Measurements as given in the NIST ThermoML archive (doi:10.1021/je400529k).

How the values were obtained:
[1] = xn = mol fraction of the nth substance listed; settings: 101 kPa, Liquid; for viscosity: Capillary tube (Ostwald / Ubbelohde) method; for mass density: Vibrating tube method
[2] = refractive index (Na D-line) (dimensionless); xn = mol fraction of the nth substance listed; settings: 101 kPa, Liquid, Standard Abbe refractometry

C1C[C@@H]2[C@H]3CC[C@H](C3)[C@@H]2C1 [exo-tetrahydrodicyclopentadiene] + C1CCCCC1
Settings | mass density, [1] [kg/m3] | refractive index, [2] | viscosity, [1] [mPa·s]
293.15 K, x1 = 0.0998 | 799.53 | 1.4357 | 1.13
293.15 K, x1 = 0.2006 | 819.11 | 1.4426 | 1.296
293.15 K, x1 = 0.3003 | 837.1 | 1.4495 | 1.462
293.15 K, x1 = 0.3996 | 853.82 | 1.4564 | 1.633
293.15 K, x1 = 0.4987 | 869.42 | 1.4624 | 1.814
293.15 K, x1 = 0.6005 | 884.43 | 1.4683 | 2.016
293.15 K, x1 = 0.7002 | 898.3 | 1.4732 | 2.231
293.15 K, x1 = 0.8008 | 911.5 | 1.4781 | 2.463
293.15 K, x1 = 0.9 | 923.87 | 1.4829 | 2.72
293.15 K, x1 = 1 | 935.72 | 1.4874 | 2.992
298.15 K, x1 = 0.0998 | 794.92 | – | 1.032
298.15 K, x1 = 0.2006 | 814.56 | – | 1.18
298.15 K, x1 = 0.3003 | 832.65 | – | 1.327
298.15 K, x1 = 0.3996 | 849.45 | – | 1.481
298.15 K, x1 = 0.4987 | 865.15 | – | 1.645
298.15 K, x1 = 0.6005 | 880.23 | – | 1.828
298.15 K, x1 = 0.7002 | 894.2 | – | 2.024
298.15 K, x1 = 0.8008 | 907.48 | – | 2.236
298.15 K, x1 = 0.9 | 919.92 | – | 2.466
298.15 K, x1 = 1 | 931.84 | – | 2.71
303.15 K, x1 = 0.0998 | 790.27 | 1.4305 | 0.948
303.15 K, x1 = 0.2006 | 809.99 | 1.4373 | 1.08
303.15 K, x1 = 0.3003 | 828.19 | 1.4449 | 1.212
303.15 K, x1 = 0.3996 | 845.07 | 1.4512 | 1.351
303.15 K, x1 = 0.4987 | 860.86 | 1.4582 | 1.5
303.15 K, x1 = 0.6005 | 876.06 | 1.4633 | 1.668
303.15 K, x1 = 0.7002 | 890.08 | 1.4689 | 1.846
303.15 K, x1 = 0.8008 | 903.43 | 1.4739 | 2.037
303.15 K, x1 = 0.9 | 915.95 | 1.4789 | 2.248
303.15 K, x1 = 1 | 927.94 | 1.4831 | 2.467
308.15 K, x1 = 0.0998 | 785.6 | – | 0.874
308.15 K, x1 = 0.2006 | 805.41 | – | 0.993
308.15 K, x1 = 0.3003 | 823.69 | – | 1.113
308.15 K, x1 = 0.3996 | 840.68 | – | 1.239
308.15 K, x1 = 0.4987 | 856.56 | – | 1.375
308.15 K, x1 = 0.6005 | 871.85 | – | 1.528
308.15 K, x1 = 0.7002 | 885.97 | – | 1.691
308.15 K, x1 = 0.8008 | 899.4 | – | 1.866
308.15 K, x1 = 0.9 | 911.98 | – | 2.056
308.15 K, x1 = 1 | 924.02 | – | 2.255
313.15 K, x1 = 0.0998 | 780.9 | 1.4238 | 0.808
313.15 K, x1 = 0.2006 | 800.82 | 1.4319 | 0.917
313.15 K, x1 = 0.3003 | 819.19 | 1.439 | 1.026
313.15 K, x1 = 0.3996 | 836.28 | 1.4456 | 1.141
313.15 K, x1 = 0.4987 | 852.26 | 1.453 | 1.267
313.15 K, x1 = 0.6005 | 867.63 | 1.4583 | 1.407
313.15 K, x1 = 0.7002 | 881.85 | 1.4642 | 1.555
313.15 K, x1 = 0.8008 | 895.35 | 1.4689 | 1.715
313.15 K, x1 = 0.9 | 907.1 | 1.4737 | 1.888
313.15 K, x1 = 1 | 920.11 | 1.4786 | 2.069
318.15 K, x1 = 0.0998 | – | – | 0.751
318.15 K, x1 = 0.2006 | – | – | 0.848
318.15 K, x1 = 0.3003 | – | – | 0.949
318.15 K, x1 = 0.3996 | – | – | 1.055
318.15 K, x1 = 0.4987 | – | – | 1.169
318.15 K, x1 = 0.6005 | – | – | 1.298
318.15 K, x1 = 0.7002 | – | – | 1.435
318.15 K, x1 = 0.8008 | – | – | 1.581
318.15 K, x1 = 0.9 | – | – | 1.741
318.15 K, x1 = 1 | – | – | 1.907
